According to ChEMBL document CHEMBL5316263, “Structure-Based Discovery of Selective Histone Deacetylase 8 Degraders with Potent Anticancer Activity” (J Med Chem, 2023):
Activity calls are given as the source filed them. The calls are words filed in the database; no cut-off is given here.

Experiments:
[1] = target: T1, Protein cereblon/Histone deacetylase 8 (Homo sapiens) (UniProt Q9BY41+Q96SW2); experiment: Protac activity at CRBN/HDAC8 in human A549 cells assessed as reduction in HDAC8 protein levels at 10 uM measured after 18 hrs by Western blot analysis relative to control; assay type: cell-based; parameters: scale not given: the % may be the effect or the level left
[2] = target: Protein cereblon/NAD-dependent protein deacetylase sirtuin-7 (Homo sapiens) (UniProt Q9NRC8+Q96SW2); experiment: Protac activity at CRBN/Sirt7 in human A549 cells assessed as reduction in Sirt7 protein level at 0.1 to 10 uM by Western blot analysis; assay type: cell-based; conditions: dose 0.1-10 µM
[3] = target: T2, Histone deacetylase 8 (Homo sapiens) (UniProt Q9BY41); experiment: Induction of degradation in HDAC8 in human A549 cells incubated for 20 hrs by proteomic analysis; assay type: cell-based
T2 sequence (whole entry): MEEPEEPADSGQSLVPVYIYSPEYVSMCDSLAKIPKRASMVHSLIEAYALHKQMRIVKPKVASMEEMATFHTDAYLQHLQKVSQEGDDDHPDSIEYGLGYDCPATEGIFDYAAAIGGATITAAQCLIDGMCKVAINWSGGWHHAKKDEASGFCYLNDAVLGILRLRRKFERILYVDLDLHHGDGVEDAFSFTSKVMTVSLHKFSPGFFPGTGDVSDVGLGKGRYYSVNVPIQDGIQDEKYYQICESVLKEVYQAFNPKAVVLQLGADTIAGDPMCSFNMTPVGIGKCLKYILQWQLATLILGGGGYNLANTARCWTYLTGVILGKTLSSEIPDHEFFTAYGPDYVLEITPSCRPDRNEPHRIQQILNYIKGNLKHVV

A549 [4] = experiment: Effect on ARPIN gene in human A549 cells at 10 uM measured after 20 hrs by RNA sequencing analysis; assay type: functional, cell-based
A549 [5] = experiment: Induction of apoptosis in human A549 cells assessed as late apoptotic cells at 5 uM incubated with compound followed by irradiation by annexin V-FITC staining based flow cytometry (reference value: 3.07%); assay type: functional
A549 [6] = experiment: Induction of apoptosis in human A549 cells assessed as early apoptotic cells at 2.5 uM incubated for 72 hrs by annexin V-FITC staining based flow cytometry (reference value: 0.099%); assay type: functional
A549 [7] = experiment: Induction of apoptosis in human A549 cells assessed as early apoptotic cells at 5 uM by annexin V-FITC staining based flow cytometry (reference value: 0%); assay type: functional
A549 [8] = experiment: Induction of apoptosis in human A549 cells assessed as viable cells at 2.5 uM incubated for 72 hrs by annexin V-FITC staining based flow cytometry (reference value: 99.9%); assay type: functional; conditions: read-out: Activity
[9] = target: T1, Protein cereblon/Histone deacetylase 8 (Homo sapiens); experiment: Protac activity at CRBN/HDAC8 in human A549 cells assessed as reduction in HDAC8 protein levels at 10 uM measured after 16 hrs by Western blot analysis; assay type: cell-based
A549 [10] = experiment: Induction of apoptosis in human A549 cells assessed as early apoptotic cells at 1.25 uM incubated for 72 hrs by annexin V-FITC staining based flow cytometry (reference value: 0.099%); assay type: functional
[11] = target: T1, Protein cereblon/Histone deacetylase 8 (Homo sapiens); experiment: Protac activity at CRBN/HDAC8 in human A549 cells assessed as decrease in PGM1 expression at 0.1 to 10 uM under glucose deprivation condition by Western blot analysis; assay type: cell-based; conditions: dose 0.1-10 µM
A549 [12] = experiment: Downregulation of LAMTOR4 in human A549 cells measured after 20 hrs by proteomic analysis; assay type: functional, cell-based
[13] = target: Protein cereblon/Histone deacetylase 9 (Homo sapiens) (UniProt Q9UKV0+Q96SW2); experiment: Protac activity at CRBN/HDAC9 in human A549 cells assessed as reduction in HDAC9 protein level at 0.1 to 10 uM by Western blot analysis; assay type: cell-based; conditions: dose 0.1-10 µM
[14] = target: Cereblon/Ikaros (Homo sapiens) (UniProt Q96SW2+Q13422); experiment: Protac activity at CRBN/IKZF1 in human A549 cells assessed as reduction in IKZF1 protein level at 10 uM by Western blot analysis; assay type: cell-based
A549 [15] = experiment: Induction of apoptosis in human A549 cells assessed as late apoptotic cells at 20 uM incubated for 72 hrs by annexin V-FITC staining based flow cytometry (reference value: 0.048%); assay type: functional
A549 [16] = experiment: Induction of apoptosis in human A549 cells assessed as late apoptotic cells at 5 uM by annexin V-FITC staining based flow cytometry (reference value: 0.00%); assay type: functional
[17] = target: T1, Protein cereblon/Histone deacetylase 8 (Homo sapiens); experiment: Protac activity at CRBN/HDAC8 in human Jurkat cells at 0.1 to 10 uM measured after 20 hrs by Western blot analysis; assay type: cell-based; conditions: dose 0.1-10 µM
A549 [18] = experiment: Effect on OASL gene in human A549 cells at 10 uM measured after 20 hrs by RNA sequencing analysis; assay type: functional, cell-based
A549 [19] = experiment: Induction of apoptosis in human A549 cells assessed as early apoptotic cells at 5 uM incubated with compound followed by irradiation by annexin V-FITC staining based flow cytometry (reference value: 6.26%); assay type: functional
A549 [20] = experiment: Antiproliferative activity against human A549 cells assessed as inhibition of cell growth measured after 72 hrs by CCK-8 method; assay type: functional, cell-based
A549 [21] = experiment: Inhibition of HDAC8 foci formation in human A549 cells measured after 20 hrs by DAPI staining based immunofluorescence assay; assay type: functional, cell-based; conditions: dose 0.5-8 µM
[22] = target: T1, Protein cereblon/Histone deacetylase 8 (Homo sapiens); experiment: Protac activity at CRBN/HDAC8 in human A549 cells at 10 uM measured preincubated for 20 hrs followed by drug washout and measured after 48 hrs by Western blot analysis; assay type: cell-based
HCT-116 = experiment: Induction of apoptosis in human HCT-116 cells assessed as necrotic cells at 5 uM incubated for 48 hrs by annexin V FITC and propidium iodide based flow cytometry relative to control; assay type: functional
A549 [23] = experiment: Induction of apoptosis in human A549 cells assessed as late apoptotic cells at 5 uM incubated for 72 hrs by annexin V-FITC staining based flow cytometry (reference value: 0.048%); assay type: functional
A549 [24] = experiment: Antitumor activity against human A549 cells xenografted in NOD/SCID mouse assessed as increase in number of necrotic cells at 5 mg/kg, ip administered every 5 days measured at day 30 under irradiation condition by H and E staining based analysis; assay type: functional, organism-based; conditions: time 30.0 day
A549 [25] = experiment: Downregulation of ABHD6 in human A549 cells measured after 20 hrs by proteomic analysis; assay type: functional, cell-based
A549 [26] = experiment: Induction of apoptosis in human A549 cells assessed as viable cells at 5 uM incubated with compound followed by irradiation by annexin V-FITC staining based flow cytometry (reference value: 89.7%); assay type: functional; conditions: A549, light or radiation study, read-out: Activity
[27] = target: T1, Protein cereblon/Histone deacetylase 8 (Homo sapiens); experiment: Protac activity at CRBN/HDAC8 in human A549 cells assessed as reduction in HDAC8 protein level at 10 uM by Western blot analysis relative to control; assay type: cell-based; parameters: scale not given: the % may be the effect or the level left
A549 [28] = experiment: Effect on MAFK gene in human A549 cells at 10 uM measured after 20 hrs by RNA sequencing analysis; assay type: functional, cell-based
A549 [29] = experiment: Effect on EREG gene in human A549 cells at 10 uM measured after 20 hrs by RNA sequencing analysis; assay type: functional, cell-based

T1 sequence (Q96SW2 whole entry, looked up, one chain of several): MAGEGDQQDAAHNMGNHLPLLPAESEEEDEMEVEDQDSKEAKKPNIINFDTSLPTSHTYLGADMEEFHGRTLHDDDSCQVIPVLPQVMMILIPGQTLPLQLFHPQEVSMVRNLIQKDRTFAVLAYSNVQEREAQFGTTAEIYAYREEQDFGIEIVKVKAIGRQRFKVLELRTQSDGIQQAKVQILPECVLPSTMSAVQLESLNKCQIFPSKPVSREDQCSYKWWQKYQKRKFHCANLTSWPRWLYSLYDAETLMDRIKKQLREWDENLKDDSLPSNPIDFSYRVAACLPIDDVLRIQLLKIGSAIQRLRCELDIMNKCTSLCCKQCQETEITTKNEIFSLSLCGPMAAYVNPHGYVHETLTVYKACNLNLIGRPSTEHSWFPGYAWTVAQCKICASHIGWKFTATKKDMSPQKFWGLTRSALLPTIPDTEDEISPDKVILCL
Sequence of Protein cereblon/Histone deacetylase 9 (Homo sapiens) (Q96SW2 whole entry, looked up): as the sequence (Q96SW2 whole entry, looked up, one chain of several) above
Sequence of Protein cereblon/Histone deacetylase 9 (Homo sapiens) (Q9UKV0 whole entry, looked up): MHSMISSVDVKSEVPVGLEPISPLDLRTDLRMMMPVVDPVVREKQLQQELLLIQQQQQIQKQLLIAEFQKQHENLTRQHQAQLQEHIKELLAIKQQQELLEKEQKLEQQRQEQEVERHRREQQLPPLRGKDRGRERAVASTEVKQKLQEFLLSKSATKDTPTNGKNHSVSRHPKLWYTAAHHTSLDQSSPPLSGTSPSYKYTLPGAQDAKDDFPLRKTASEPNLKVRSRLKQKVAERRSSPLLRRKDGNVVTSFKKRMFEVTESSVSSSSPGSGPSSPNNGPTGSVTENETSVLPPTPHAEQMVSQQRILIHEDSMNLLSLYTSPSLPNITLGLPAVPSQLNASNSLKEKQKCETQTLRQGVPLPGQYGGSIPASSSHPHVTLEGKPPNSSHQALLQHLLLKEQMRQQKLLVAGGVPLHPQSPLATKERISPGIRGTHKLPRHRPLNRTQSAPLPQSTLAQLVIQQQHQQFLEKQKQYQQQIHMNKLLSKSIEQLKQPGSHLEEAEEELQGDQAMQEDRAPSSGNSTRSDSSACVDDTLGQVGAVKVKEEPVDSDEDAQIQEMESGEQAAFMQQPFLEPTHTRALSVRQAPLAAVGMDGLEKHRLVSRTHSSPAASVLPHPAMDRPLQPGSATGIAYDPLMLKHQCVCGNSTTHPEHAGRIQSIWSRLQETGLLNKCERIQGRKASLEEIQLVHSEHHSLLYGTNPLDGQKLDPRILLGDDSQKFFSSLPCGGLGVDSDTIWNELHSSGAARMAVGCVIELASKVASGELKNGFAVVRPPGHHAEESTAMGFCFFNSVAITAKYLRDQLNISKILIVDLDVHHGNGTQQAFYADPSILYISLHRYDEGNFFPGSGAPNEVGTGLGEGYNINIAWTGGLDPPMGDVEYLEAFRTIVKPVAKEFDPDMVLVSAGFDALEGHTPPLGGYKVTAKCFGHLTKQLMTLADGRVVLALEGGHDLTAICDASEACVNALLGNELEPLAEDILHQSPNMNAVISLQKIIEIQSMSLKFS
Sequence of Protein cereblon/NAD-dependent protein deacetylase sirtuin-7 (Homo sapiens) (Q96SW2 whole entry, looked up): as the sequence (Q96SW2 whole entry, looked up, one chain of several) above
Sequence of Protein cereblon/NAD-dependent protein deacetylase sirtuin-7 (Homo sapiens) (Q9NRC8 whole entry, looked up): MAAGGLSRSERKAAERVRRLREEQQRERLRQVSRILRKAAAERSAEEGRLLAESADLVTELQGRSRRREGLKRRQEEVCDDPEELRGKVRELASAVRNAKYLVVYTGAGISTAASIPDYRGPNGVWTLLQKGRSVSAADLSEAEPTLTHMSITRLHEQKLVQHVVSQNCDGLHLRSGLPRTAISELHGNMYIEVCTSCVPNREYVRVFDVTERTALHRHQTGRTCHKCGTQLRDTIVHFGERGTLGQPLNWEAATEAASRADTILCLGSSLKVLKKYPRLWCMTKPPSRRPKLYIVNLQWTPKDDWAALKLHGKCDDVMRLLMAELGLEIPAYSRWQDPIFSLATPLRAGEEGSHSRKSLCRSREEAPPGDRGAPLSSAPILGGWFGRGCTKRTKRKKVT

Activity [1]: 100%
Activity [2]: inactive
Activity [3]: Active
Activity [9]: Active
Activity [11]: Active
Activity [13]: inactive
Activity [14]: Active
Activity [17]: inactive
IC50 (A549 [20]; A549, 72 h): 9.55 µM
Activity [22]: inactive
Activity [27]: > 90%
Compound: O=C1CCC(N2C(=O)c3cccc(NCc4cn(CCOCCOc5ccc(Cn6ccc7ccc(C(=O)NO)cc76)cc5)nn4)c3C2=O)C(=O)N1 (stereo unspecified)
Activity (A549 [4]): Active
Activity (A549 [5]): 0.3%
Activity (A549 [6]): 22.5%
Activity (A549 [7]): 15.4%
viability at 2.5 µM (A549 [8]): 61.7%
Activity (A549 [10]): 24.2%
Activity (A549 [12]): Active
Activity (A549 [15]): 22.7%
Activity (A549 [16]): 6.19%
Activity (A549 [18]): Active
Activity (A549 [19]): 26.7%
Activity (A549 [20]; dose <= 1.5 µM): Dose-Dependent Effect
inhibition (A549 [21]): Dose-Dependent Effect
Activity (HCT-116): 10%
Activity (A549 [23]): 21.8%
Activity (A549 [24]): Active
Activity (A549 [25]): Active
viability at 5 µM (A549 [26]): 66.3%
Activity (A549 [28]): Active
Activity (A549 [29]): Active
